In brackets after ≈: the same amount, converted by molar mass.
Columns and labels:
Format in all cases: functional
[1] = tested on: Mycobacterium tuberculosis; assay: AntiMycobacterium tuberculosis activity 1-week 7H9/cholesterol/BSA/Tx MIC (uM); settings: 168 h
[2] = tested on: Mycobacterium tuberculosis; assay: AntiMycobacterium tuberculosis activity day 21 in 7H9/2.5mM butyrate/pH6/0.1mM nitrite MIC90 (uM); settings: 504 h
[3] = tested on: Mycobacterium tuberculosis; assay: (§1) AntiMycobacterium tuberculosis activity day 10 in 7H9/2.5mM butyrate/pH6/0.1mM nitrite MIC90 (uM); settings: 240 h
[4] = tested on: Mycobacterium tuberculosis; assay: AntiMycobacterium tuberculosis activity 1-week GAST/Fe MIC (uM); settings: 168 h
[5] = tested on: Mycobacterium tuberculosis; assay: AntiMycobacterium tuberculosis activity 2-week Alamar Blue 7H9/cholesterol/BSA/Tx MIC (uM); settings: 336 h
HepG2 = assay: HepG2 CC50 (uM) Cytotoxicity; settings: Homo sapiens
[6] = tested on: Mycobacterium tuberculosis; assay: AntiMycobacterium tuberculosis activity 2-week Alamar Blue 7H9/ADC/Tw MIC (uM); settings: 336 h
[7] = tested on: Mycobacterium tuberculosis; assay: AntiMycobacterium tuberculosis activity day 21 MIC99 in 7H9/2.5mM butyrate/pH6/0.1mM nitrite MIC99 (uM); settings: 504 h
[8] = tested on: Mycobacterium tuberculosis; assay: as §1; settings: 240 h; remark: listed apart in the source
[9] = tested on: Mycobacterium tuberculosis; assay: AntiMycobacterium tuberculosis activity Non-Replicating form: Average MIC90 (uM)
[10] = tested on: Mycobacterium tuberculosis; assay: AntiMycobacterium tuberculosis activity 1-week 7H9/DPPC/cholesterol/BSA/Tx MIC (uM); settings: 168 h
[11] = tested on: Mycobacterium tuberculosis; assay: AntiMycobacterium tuberculosis activity 2-week GAST/Fe MIC (uM); settings: 336 h
[12] = tested on: Mycobacterium tuberculosis; assay: AntiMycobacterium tuberculosis activity 1-week 7H9/glucose/BSA/Tx MIC (uM); settings: 168 h
[13] = tested on: Mycobacterium tuberculosis; assay: AntiMycobacterium tuberculosis activity 2-week 7H9/ADC/Tw MIC (uM); settings: 336 h
[14] = tested on: Mycobacterium tuberculosis; assay: AntiMycobacterium tuberculosis activity Replicating form: Average MIC90 (uM)
[15] = tested on: Mycobacterium tuberculosis; assay: AntiMycobacterium tuberculosis activity 2-week 7H9/glucose/BSA/Tx MIC (uM); settings: 336 h
[16] = tested on: Mycobacterium tuberculosis; assay: AntiMycobacterium tuberculosis activity 1-week 7H9/ADC/Tw MIC (uM); settings: 168 h
[17] = tested on: Mycobacterium tuberculosis; assay: AntiMycobacterium tuberculosis activity 2-week 7H9/DPPC/cholesterol/BSA/Tx MIC (uM); settings: 336 h

SMILES	MIC [1] [µM]	MIC90 [2] [µM]	MIC90 [3] [µM]	MIC [4] [µM]	MIC [5] [µM]	CC50 (HepG2) [µM]	MIC [6] [µM]	MIC [7] [µM]	MIC90 [8] [µM]	MIC90 [9] [µM]	MIC [10] [µM]	MIC [11] [µM]	MIC [12] [µM]	MIC [13] [µM]	MIC90 [14] [µM]	MIC [15] [µM]	MIC [16] [µM]	MIC [17] [µM]
NC(=O)c1cc(Br)ccc1OCCOc1ccccc1	50 (≈ 16.8 µg/mL)	> 50	50 (≈ 16.8 µg/mL)	6.25 (≈ 2.1 µg/mL)	> 50	> 100	> 50	> 50	> 50	> 100	> 50	37 (≈ 12.4 µg/mL)	> 50	> 50	> 100	> 50	> 50	> 50
COc1ccc(-c2nc(-c3cccc(NC(=O)Cc4ccc(F)cc4)c3)no2)cc1OC	0.6 (≈ 0.26 µg/mL)	6.25 (≈ 2.71 µg/mL)	3.12 (≈ 1.35 µg/mL)	1.56 (≈ 0.676 µg/mL)	0.6 (≈ 0.26 µg/mL)	> 100	0.39 (≈ 0.169 µg/mL)	6.25 (≈ 2.71 µg/mL)	3.12 (≈ 1.35 µg/mL)	1.61 (≈ 0.698 µg/mL)	0.78 (≈ 0.338 µg/mL)	1.56 (≈ 0.676 µg/mL)	0.2 (≈ 0.0867 µg/mL)	0.39 (≈ 0.169 µg/mL)	0.39 (≈ 0.169 µg/mL)	0.2 (≈ 0.0867 µg/mL)	0.3 (≈ 0.13 µg/mL)	0.78 (≈ 0.338 µg/mL)
O=C(c1cc2ccccc2o1)N1CCN(Cc2ccc3c(c2)OCO3)CC1	37 (≈ 13.5 µg/mL)	> 50	50 (≈ 18.2 µg/mL)	0.1 (≈ 0.0364 µg/mL)	6.25 (≈ 2.28 µg/mL)	> 100	12.5 (≈ 4.56 µg/mL)	> 50	> 50	16.6 (≈ 6.07 µg/mL)	19 (≈ 6.92 µg/mL)	0.2 (≈ 0.0729 µg/mL)	> 50	> 50	> 100	> 50	> 50	50 (≈ 18.2 µg/mL)
Cc1cc(O)nc(-n2nc(C)cc2C)n1	25 (≈ 5.11 µg/mL)	12.5 (≈ 2.55 µg/mL)	6.25 (≈ 1.28 µg/mL)	1.56 (≈ 0.319 µg/mL)	25 (≈ 5.11 µg/mL)	60.7	50 (≈ 10.2 µg/mL)	12.5 (≈ 2.55 µg/mL)	25 (≈ 5.11 µg/mL)	> 43.3	50 (≈ 10.2 µg/mL)	4.7 (≈ 0.96 µg/mL)	25 (≈ 5.11 µg/mL)	50 (≈ 10.2 µg/mL)	> 100	> 50	37 (≈ 7.56 µg/mL)	> 50
O=C(NCc1ccco1)N1CCN(Cc2ccc(Cl)s2)CC1	37 (≈ 12.6 µg/mL)	> 50	50 (≈ 17 µg/mL)	0.6 (≈ 0.204 µg/mL)	12.5 (≈ 4.25 µg/mL)	> 100	12.5 (≈ 4.25 µg/mL)	> 50	> 50	90.2 (≈ 30.6 µg/mL)	37 (≈ 12.6 µg/mL)	1.2 (≈ 0.408 µg/mL)	> 50	> 50	> 100	> 50	> 50	50 (≈ 17 µg/mL)
N#Cc1nc(-c2ccccc2F)oc1NCCc1ccccc1	19 (≈ 5.84 µg/mL)	> 50	50 (≈ 15.4 µg/mL)	0.78 (≈ 0.24 µg/mL)	12.5 (≈ 3.84 µg/mL)	> 100	37 (≈ 11.4 µg/mL)	> 50	> 50	75.5 (≈ 23.2 µg/mL)	12.5 (≈ 3.84 µg/mL)	1.56 (≈ 0.479 µg/mL)	> 50	> 50	> 100	> 50	> 50	50 (≈ 15.4 µg/mL)
Cc1cnc(N2CCN[C@@H](Cc3ccccc3)C2)nc1Oc1ccc(-n2ccnc2)cc1	12.5 (≈ 5.33 µg/mL)	> 50	> 50	6.25 (≈ 2.67 µg/mL)	50 (≈ 21.3 µg/mL)	14.1	19 (≈ 8.1 µg/mL)	> 50	> 50	27.7 (≈ 11.8 µg/mL)	12.5 (≈ 5.33 µg/mL)	9.4 (≈ 4.01 µg/mL)	19 (≈ 8.1 µg/mL)	37 (≈ 15.8 µg/mL)	8.88 (≈ 3.79 µg/mL)	37 (≈ 15.8 µg/mL)	25 (≈ 10.7 µg/mL)	37 (≈ 15.8 µg/mL)
O=C(Nc1cccnc1)c1c(O)c2cccc3c2n(c1=O)CC3	12.5 (≈ 3.84 µg/mL)	12.5 (≈ 3.84 µg/mL)	6.25 (≈ 1.92 µg/mL)	3.13 (≈ 0.962 µg/mL)	12.5 (≈ 3.84 µg/mL)	> 100	25 (≈ 7.68 µg/mL)	> 50	> 50	7.75 (≈ 2.38 µg/mL)	12.5 (≈ 3.84 µg/mL)	3.13 (≈ 0.962 µg/mL)	6.25 (≈ 1.92 µg/mL)	25 (≈ 7.68 µg/mL)	8.35 (≈ 2.57 µg/mL)	9.4 (≈ 2.89 µg/mL)	25 (≈ 7.68 µg/mL)	12.5 (≈ 3.84 µg/mL)
Cc1ccc2nc(Cl)c(CNCc3cccs3)cc2c1	19 (≈ 5.75 µg/mL)	> 50	> 50	0.78 (≈ 0.236 µg/mL)	37 (≈ 11.2 µg/mL)	> 100	50 (≈ 15.1 µg/mL)	> 50	> 50	93.7 (≈ 28.4 µg/mL)	12.5 (≈ 3.79 µg/mL)	1.56 (≈ 0.472 µg/mL)	> 50	> 50	> 100	> 50	> 50	> 50

From ChEMBL document CHEMBL3832761, “MMV Pathogen Box Bioactivity Data” (2017)
